Data: EP4459280A1, “SCREENING AND USES OF GLUTATHIONE SYNTHETASE MODULATORS” (Max-Planck-Gesellschaft zur Förderung der Wissenschaften …, priority 2023, dated 2024)
Residues, ends and D or L forms follow the SMILES beside them. *: point of attachment. Cbz = O=C(OCc1ccccc1)*

What was measured:
p70 phospho-S6K (pS6K) = test: Immunoblotting for phospho-S6K (mTORC1 activity) in U2OS cells; assay type: cell-based, human; conditions: U2OS gln-, αKG 1 mM
Protocol: (§4) For all experiments, unless otherwise indicated, cells were plated in complete DMEM. The next day cell monolayers were rinsed 2X with 1X PBS and cultured in DMEM overnight, followed by treatments as indicated in text. […] Lysates were subsequently shaken at 1500 rpm at 37°C for 15min, centrifuged for 5 min at 1200 rpm at 4°C, and the supernatant was transferred into a fresh tube. Protein concentration was quantified using Pierce™ BCA Protein Assay Kit and after diluted with 5X SDS added to a final of 1X SDS. 10 ug of protein was applied in an SDS-PAGE gel and transferred to PVDF membranes. Membranes were blocked with PBS-0.05% Tween 20 (PBS-T) and 5% non-fat milk for 30min. Primary antibodies were incubated in PBS-T overnight.

FDFT1 = test: Immunoblotting for FDFT1 in U2OS cells; assay type: cell-based, human; conditions: U2OS starved of glutamine 8 hours, αKG 1 mM
Protocol: as §4

HMGCR [1] = test: Immunoblotting for HMGCR in U2OS cells; assay type: cell-based, human; conditions: for loss of HMGCR during glutamine withdrawal: U2OS gln-, αKG 1 mM (24h), ISRIB 200nM (8h); for rescue of HMGCR in glutamine-starved cells: U2OS w/o glutamine 24h, then treated 24h: 1mM sodium pyruvate, DON at indicated concentrations, 2 mM D-gln
Protocol: Cells were tested frequently for Mycoplasma infection by PCR.
(§1) Primary antibodies were incubated in PBS-T overnight.

U2OS cells [2] = test: 13C6-glucose isotope labeling and metabolomics (AEX-MS) of TCA metabolites in U2OS cells; assay type: cell-based, human; conditions: U2OS 24h, gln-, 1 mM αKG
Protocol: (§2) 2 × 10^5 cells were plated in complete DMEM in 6 wells plates. The following day, cells were rinsed 2X with 1X PBS and cultured in DMEM. Treatments were started the following day as indicated in the text in 6 wells plates containing. For glucose-related isotope-labeling experiments, D-Glucose-^13C6 (Sigma #389374-1G) was administed at 25mM in 1 ml of glutamine-free DMEM. For ammonia-related isotope-labeling experiments, ammonium label experiments Ammonium-^15N chloride (Sigma #299251-250MG) at 10mM. After the indicated treatments cells were washed twice with 75mM of ammonium carbonate pH =7.4 and the plates were frozen in liquid nitrogen and stored at -80°C until metabolite extraction. For metabolite extraction, 60% MeOH containing internal standards buffer was added to each well of the frozen plate. The cells were then scraped, transferred to a new tube containing MTBE and EquiSPLASH™ LIPIDOMIX® (Avanti 330731-1EA), and incubated for 30 min at 1500 rpm at 4°C. The samples were centrifuged for 10 min at 21.000xg at 4°C. The supernatants were then collected in a new tube with LCMS-grade H2O, incubated for 10 min at 1500 rpm at 15°C, and further centrifuged for 5 min at 16.000xg at 15°C to obtain a clear phase separation. The upper phase (apolar metabolites) and the down phase (polar metabolites) were collected in different tubes. After, the metabolite extracts were dried down in speed vac and stored at -80°C until further analysis by LC-HRS-MS as described further.

eGFP-SCAP = test: Immunofluorescence assay of eGFP-SCAP localization relative to the Golgi in CHO cells; assay type: cell-based, Chinese hamster; conditions: CHO w/o gln 24h
Protocol: For immunofluorescence (IF) analysis of eGFP-SCAP-expressing CHOs, .25 × 10^4 cells were plated in a 24-well glass-bottom sensoplate, starved of glutamine for 24h, and incubated with methionine sulfoximine at 0.5 mM with either no glutamine, 2 mM glutamine, or 1mM a-ketoglutarate. […] Following 3X rinses in 1X PBS, images were taken using an Olympus IXplore SpinSR spinning disk confocal microscope.

U2OS cells [3] = test: UPLC-HRMS-based measurement of 13C-cholesterol in U2OS cells; assay type: cell-based, human; conditions: U2OS 24h, 25 mM 13C6-glucose, gln-, 1 mM αKG
Protocol: as §2, with “After, the metabolite extracts were dried down in speed vac and stored at -80°C until further analysis by LC-HRS-MS as described further.” left out

SREBP2 [4] = test: Immunoblotting for precursor and mature SREBP2 in U2OS cells; assay type: cell-based, human; conditions: U2OS starved of glutamine 8h ± αKG 1 mM
Protocol: as §4

ATF4 = test: Immunoblotting for ATF4 (integrated stress response) in U2OS cells; assay type: cell-based, human; conditions: U2OS ± gln, ISRIB 200nM, 8h
Protocol: as §1

ATF6 = test: Immunoblotting for ATF6 cleavage in U2OS cells; assay type: cell-based, human; conditions: U2OS w/o glutamine 24h, then 8 hours ± 2 mM gln, 15 µg/ml tunicamycin
Protocol: as §1

HMGCR [5] = test: Immunoblotting for HMGCR in HepG2 cells; assay type: cell-based, human
Description: (§3) HeLa adenocarcinoma cells, HepG2 hepatocellular carcinoma, and Wild-type (WT) MEFs as well as Mfn1^-/^-, and Mfn2^-/- mouse embryonic fibroblasts (MEFs) were obtained from ATCC (CCL-2, HB-8065, CRL-2991, CRL-2992, and CRL-2993, respectively). eGFP-SCAP-expressing CHO Chinese hamster ovary cells were provided by Drs. J Goldstein and M Brown (U of Texas Southwestern Medical Center); WT and MFN2 KO U2OS cells were provided by Dr. Edward A Fon (McGill University, Montreal, Canada). All cell lines were cultured in complete DMEM (cDMEM: DMEM + 10% heat-inactivated FBS + 1%P/S) at 5% CO2 except for CHO cells which were cultured in DMEM/F12 media containing 5% heat-inactivated FBS. For all the experiments, cells were plated and cultivated without FBS (DMEM and 10% H20 for cell culture + 1%P/S) to promote cholesterol synthesis. Cells were tested frequently for Mycoplasma infection by PCR.
For all experiments, unless otherwise indicated, cells were plated in complete DMEM. The next day cell monolayers were rinsed 2X with 1X PBS and cultured in DMEM overnight, followed by treatments as indicated in text. Whole cells were harvested in chilled lysis buffer (50mM Hepes-KOH pH 7.4, 40mM NaCl, 2mM EDTA, 1.5mM NaVO4, 50mM NaF, 10mM NaPyrophosphate, 10mM, NaBetaGlycerophosphate (disodium salt pentahydrate), 1% Triton X-100) containing 0.25U/uL. Lysates were subsequently shaken at 1500 rpm at 37°C for 15min, centrifuged for 5 min at 1200 rpm at 4°C, and the supernatant was transferred into a fresh tube. Protein concentration was quantified using Pierce™ BCA Protein Assay Kit and after diluted with 5X SDS added to a final of 1X SDS. 10 ug of protein was applied in an SDS-PAGE gel and transferred to PVDF membranes. Membranes were blocked with PBS-0.05% Tween 20 (PBS-T) and 5% non-fat milk for 30min. Primary antibodies were incubated in PBS-T overnight. Following incubation, blots were washed three times in PBS-T and then incubated with horseradish peroxidase (HRP)-conjugated anti-mouse IgG (CST #7076) or anti-rabbit IgG (CST #7074) at a 1:10000 dilution for 60 minutes ar RT and developed using a chemiluminescence system (Pierce™ ECL Western Blotting Substrate or Pierce SuperSignal™ West Atto Ultimate Sensitivity Substrate; ThermoFisher Scientific). […]

SREBP2 [6] = test: Immunoblotting for SREBP2 cleavage in HepG2 cells; assay type: cell-based, human; conditions: Hep G2 starved of glutamine 24h, brefeldin A 0.5 µg/ml
Protocol: as §1

GLUL = GLUL (Homo sapiens, UniProt P15104); conditions: HepG2, 500 µM MSX for 8h; immunoblot
Sequence of GLUL (P15104 whole entry): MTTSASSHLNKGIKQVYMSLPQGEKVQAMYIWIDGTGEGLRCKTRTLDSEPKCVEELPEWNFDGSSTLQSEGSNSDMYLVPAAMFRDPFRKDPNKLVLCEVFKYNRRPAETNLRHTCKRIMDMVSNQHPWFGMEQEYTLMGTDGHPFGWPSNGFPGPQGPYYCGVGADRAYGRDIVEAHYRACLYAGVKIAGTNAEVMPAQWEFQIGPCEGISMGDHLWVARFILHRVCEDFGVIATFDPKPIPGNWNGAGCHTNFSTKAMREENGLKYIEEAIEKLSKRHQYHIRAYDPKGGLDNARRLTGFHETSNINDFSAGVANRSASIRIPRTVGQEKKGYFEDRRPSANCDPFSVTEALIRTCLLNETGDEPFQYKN
Description: as §3
For all experiments, unless otherwise indicated, cells were plated in complete DMEM. The next day cell monolayers were rinsed 2X with 1X PBS and cultured in DMEM overnight, followed by treatments as indicated in text. […] Protein concentration was quantified using Pierce™ BCA Protein Assay Kit and after diluted with 5X SDS added to a final of 1X SDS. […]

U2OS cells [7] = conditions: U2OS cultured 24h w/o gln, supplemented 24h with 10 mM 15NH4Cl
Protocol: (§5) 2 × 10^5 cells were plated in complete DMEM in 6 wells plates. The following day, cells were rinsed 2X with 1X PBS and cultured in DMEM. Treatments were started the following day as indicated in the text in 6 wells plates containing. For glucose-related isotope-labeling experiments, D-Glucose-^13C6 (Sigma #389374-1G) was administed at 25mM in 1 ml of glutamine-free DMEM. […] After the indicated treatments cells were washed twice with 75mM of ammonium carbonate pH =7.4 and the plates were frozen in liquid nitrogen and stored at -80°C until metabolite extraction. For metabolite extraction, 60% MeOH containing internal standards buffer was added to each well of the frozen plate. […]
(§6) The LC-HRMS analysis of amine-containing compounds was performed using a QE-Plus high-resolution mass spectrometer coupled to a Vanquish UHPLC chromatography system (Thermo Fisher Scientific). […] The identity of each compound was validated by authentic reference compounds, which were measured at the beginning and the end of the sequence. For data analysis the area of the protonated [M + nBz + H]+ (nBz stands for the number of benzoyl moieties attached to each compound) isotopologue mass peaks of every required compound were extracted and integrated using a mass accuracy <3 ppm and a retention time (RT) tolerance of <0.05 min as compared to the independently measured reference compounds. […]

HepG2 cells = conditions: HepG2 cultured 24h w/o gln, supplemented 24h with 10 mM 15NH4Cl
Protocol: as §5, §6

`O=C(O)CCC(=O)C(=O)O` [αKG, alpha-ketoglutarate] was tested, and the “mTORC1 phosphorylation of S6 kinase (S6K1)” value (p70 phospho-S6K (pS6K)) was “restored mTORC1 phosphorylation of its target ribosomal protein S6 kinase (S6K1)”, the FDFT1 protein level (FDFT1) was “decreased in cells starved of glutamine for 8 hours, despite αKG supplementation” and the “loss of HMGCR during glutamine withdrawal” value (HMGCR [1]) was “neither treatment prevented the loss of HMGCR during glutamine withdrawal”. The HMGCR protein level (HMGCR [1]; U2OS starved of glutamine 8 hours, αKG 1 mM) was “decreased in cells starved of glutamine for 8 hours, despite αKG supplementation”, the “m+2 and m+6 citrate pools” value (U2OS cells [2]; 25 mM 13C6-glucose) was “sufficient to restore m+2 and m+6 citrate pools to those of gln+ cells” and the “m+4 malate and succinate” value (U2OS cells [2]; 25 mM 13C6-glucose) was “blunted the increase in m+4 malate and succinate caused by glutamine starvation”. For the same compound, the “levels of TCA-intermediates (total pool size)” value (U2OS cells [2]) was “partly rescued levels of TCA-intermediates”, the “localization of GFP-SCAP” value (eGFP-SCAP; then gln- ± αKG 1 mM with MSX 500 µM) was “retained GFP-SCAP in the ER” and the 13C-incorporation into cholesterol (U2OS cells [3]) was “did not, however, rescue the >5-fold decrease in ^13C-incorporation into cholesterol”. The “processing of SREBP2 (precursor and mature forms)” value (SREBP2 [4]) was “inhibited the processing of SREBP2 with or without αKG”.

`NC(=O)CC[C@H](N)C(=O)O` [glutamine] was tested, and the EC50 (HMGCR [1]; Homo sapiens, U2OS w/o gln 24h, refed gln 8h, immunoblot, read-out: half-maximal effects of glutamine on HMGCR induction) was 250 to 500 µM, the “glutamine concentration sufficient to induce HMGCR” value (HMGCR [1]; U2OS w/o gln 24h, refed gln 8h) was 0.125 mM and the “Percentage of cells with Golgi-localized eGFP-SCAP” value (eGFP-SCAP; then gln 2 mM with MSX 500 µM) was > 75%.

With `O=C(COc1ccc(Cl)cc1)NC1CCC(NC(=O)COc2ccc(Cl)cc2)CC1` (centres unmarked) [ISRIB] the “activation of ISR effector ATF4” value (ATF4) was “blocked the activation of the key ISR effector ATF4” and the “loss of HMGCR during glutamine withdrawal” value (HMGCR [1]) was “neither treatment prevented the loss of HMGCR during glutamine withdrawal”.

With `NC(=O)CC[C@@H](N)C(=O)O` [D-glutamine] the “rescue of HMGCR in glutamine-starved cells” value (HMGCR [1]) was “do not rescue HMGCR in glutamine-starved cells”.

With tunicamycin the ATF6 cleavage (ATF6) was “similarly drove ATF6 cleavage in glutamine-fed or starved cells”.

For `Cl.N` [ammonia, ammonium chloride], the “glutamine and HMGCR following ammonia treatment” value (HMGCR [1]; U2OS starved of glutamine 24h, then 24 h w/o gln ± 10 mM 15NH4Cl) was “neither glutamine nor HMGCR increased following ammonia treatment” and the “HMGCR following ammonia treatment” value (HMGCR [5]; HepG2 starved of glutamine 24h, then 24 h w/o gln ± 10 mM 15NH4Cl) was “increased following ammonia treatment”.

With `C[C@H]1CCC/C=C/[C@@H]2C[C@H](O)C[C@H]2[C@H](O)/C=C/C(=O)O1` [BFA, brefeldin A] the SREBP2 cleavage (SREBP2 [6]) was “rescue SREBP2 cleavage and HMGCR in glutamine-starved cells to levels similar to those in glutamine-fed cells” and the HMGCR (HMGCR [5]; Hep G2 starved of glutamine 24h, brefeldin A 0.5 µg/ml) was “rescue SREBP2 cleavage and HMGCR in glutamine-starved cells to levels similar to those in glutamine-fed cells”.

`[N-]=[N+]=CC(=O)CC[C@H](N)C(=O)O` [DON, 6-diazo-5-oxo-L-norleucine] was tested, and the “rescue of HMGCR in glutamine-starved cells” value (HMGCR [1]) was “do not rescue HMGCR in glutamine-starved cells”.

For “uridine diphosphate N-acetylglucosamine [UDP-GlcNAc]”, the “rescue of HMGCR levels during glutamine starvation by supplements” value (HMGCR [1]; U2OS w/o gln 8 hours, NEAA 100 µM, nucleosides, glucosamine 1 mM, ± αKG 1mM) was “did not rescue HMGCR levels during glutamine starvation”.

With `CC(C)C[C@@H](C=O)NC(=O)[C@H](CC(C)C)NC(=O)[C@H](CC(C)C)NC(=O)OCc1ccccc1` [MG-132] (Cbz-Leu-Leu-Leu-aldehyde) the “depletion of HMGCR following glutamine withdrawal” value (HMGCR [1]; U2OS ± glutamine, MG-132 10 µM, 8h) was “did not prevent the depletion of HMGCR following glutamine withdrawal”.

`CC(=O)C(=O)[O-].[Na+]` [pyruvate, sodium pyruvate] was tested, and the “rescue of HMGCR in glutamine-starved cells” value (HMGCR [1]) was “do not rescue HMGCR in glutamine-starved cells”.

For `CS(=N)(=O)CCC(N)C(=O)O` (centres unmarked) [MSX, 2-amino-4-(S-methylsulfonimidosyl) butanoic acid], the “migration pattern of GLUL” value (GLUL) was “led to a shift in the migration pattern of GLUL”, the “HMGCR during glutamine starvation” value (HMGCR [5]; HepG2 starved of gln 24h, then w/out gln ± 500 µM MSX for 8h, immunoblot) was “further decreased HMGCR during glutamine starvation” and the “ammonium chloride-induced increase in HMGCR” value (HMGCR [5]; HepG2 starved of gln 24h, then w/out gln, 10 mM NH4Cl ± 500 µM MSX for 8h, immunoblot) was “prevented the ammonium chloride-induced increase in HMGCR”.

`O=C(Cc1ccccc1)Nc1nnc(CCSCCc2nnc(NC(=O)Cc3ccccc3)s2)s1` [BPTES, bis-2-(5-phenylacetamido-1,3,4-thiadiazol-2-yl)ethylsulfide] was tested, and the “HMGCR levels in glutamine-replete conditions” value (HMGCR [1]; U2OS 8h, 30µM BPTES, 2 mM gln, 1 mM αKG) was “did not reduce HMGCR levels”.

`Cl.N` [^15N-ammonia, Ammonium-^15N chloride] was tested, and the “15N-labelled glutamine of total glutamine” value (U2OS cells [7]) was “less than 2%”, the “15N-labelled glutamine of total glutamine” value (HepG2 cells) was “majority” and the “increase of total glutamine pool” value (HepG2 cells) was “> two-fold”.
